Measurements reported in patent US20210290680A1, “METHODS AND COMPOSITIONS FOR MODULATING CELLULAR AGING” (Dorian Therapeutics, Inc., priority 2019, published 2021).

Legend:
Type in all cases: cell-based, human
Axin-2 = assay: qPCR of WNT pathway gene Axin-2; details: day 15, n=4; for Axin-2 expression, fold change vs Control: CD19.CAR
Description: Primary T cells were activated as described (Example 3), transduced with a lentivirus encoding for either a CD19.CAR or a GD2.CAR co-expressing shUSP16 #1, shUSP16 #2 or a scrambled shRNA (Control). Fifteen days post-activation, T cells were collected and qPCR performed. TaqMan probes detecting CDKN1A, CDKN2A (FIGS. 26A and 26B) (fold change GD2.CAR (n=4): CDKN1A Control vs shUSP #1: 0.4360, p<0.0001, and Control vs shUSP16 #2: 3.036, p=0.004 respectively. Fold change CD19.CAR (n=4): CDKN2a, CDKN1A Control vs shUSP #1: 0.6906, p=0.0026; 0.7228, p=0.0297 and Control vs shUSP16 #2: 0.8385, p=0.2325; 0.7017, p=0.0021), TCF7, LEF1, and Axin-2 (FIGS. 27A and B) were analyzed in GD2.CAR and CD19.CAR-expressing cells, respectively. ACTB was used as internal control. (GD2.CAR (n=4) TCF7, LEF1 and Axin-2: Control vs shUSP #1: 1.914 p=0.0512; 1.795 p=0.0323; 3.269 p=0.15 and Control vs shUSP16 #2: 1.284 p=0.0494; 1.718 p=0.0586; 2.035p=0.235, respectively. Fold change CD19.CAR (n=4): TCF7, LEF1 and Axin-2: Control vs shUSP #1: 1.528, p=0.0277; 1.82, p=0.0449; 1.998, p=0.031 and Control vs shUSP16 #2: 1.18, p=0.2002; 1.579, p=0.0632; 1.261, p=0.2382). USP16 downregulation in CAR-T cells results in a decreased expression of senescence markers and an increase in the expression of genes associated with the activation/increased signaling of the WNT pathway, indicating its importance in delaying cellular senescence and increasing self-renewal.

CD69 = assay: Exhaustion marker CD69 by flow cytometry; details: for CD69%: day 16, n=3; for reduction of exhaustion marker CD69 expression (shCtrl vs shRNA): primary T cells, day 20
Protocol: Primary T cells were activated as described (Example 3), transduced with a lentivirus encoding either a shUSP16 #1, shUSP16 #2 or a non-targeting shRNA (shCtrl) and cells were selected with puromycin at day 6. At day 20, T cells were stained for CD69-Allophycocyanin (Biolegend) and T cells analyzed by MACSQuant (Miltenyi Biotec) (FIG. 19). Three primary T cell cultures were analyzed.
Primary T cells were activated as described (Example 3), transduced with a lentivirus encoding for either a CD19.CAR or a GD2.CAR co-expressing shUSP16 #1, shUSP16 #2 or a scrambled shRNA (Control). Cells were cultured in IL-2 and sorted between days 6-13 for EGFRt. At day 16, T cells were stained for exhaustion markers, including CD69.

[1] = test system: CD19.CAR and GD2.CAR T cells; assay: CAR-T cell proliferation (fold increase compared to control cells)
Description: Plasmids encoding for 2nd generation CAR specific for CD19 (Lenti-EF1a-CD19(FMC63)-2nd-CAR(CD28)-EGFRt) or GD2 (Lenti-EF1a-GD2(14G2a)-2nd-CAR(CD28)-EGFRt) were purchased from Creative Biolabs. The CAR containing plasmids were engineered to co-express a shRNA targeting USP16. The shRNA sequences are: shUSP16 #1 5′-[…]-3′ (SEQ ID NO: 8) and shUSP16 #2 5′-[…]-3′ (SEQ ID NO: 9). Primary T cells were activated as described (Example 3), transduced with a lentivirus encoding for either a CD19.CAR or a GD2.CAR co-expressing shUSP16 #1, shUSP16 #2 or a scrambled shRNA (Control). Cells were cultured in IL-2 and sorted between days 6-13 for EGFRt. Briefly, cells were stained with biotin EGFR antibody (R&D) and magnetically sorted with anti-biotin or streptavidin conjugated beads (Miltenyi Biotec) using the LS columns (Miltenyi Biotec). The positive population was isolated and expanded in regular TC-treated plates or in G-Rex 6 well culture plate (Wilson Wolf). The G-Rex platform was used to achieve a rapid expansion of T cells for in vitro and in vivo applications.
Primary T cells were activated as described (Example 3), transduced with a lentivirus encoding for either a CD19.CAR or a GD2.CAR co-expressing shUSP16 #1, shUSP16 #2 or a scrambled shRNA (Control). Cells were cultured in IL-2 and sorted between days 6-13 for EGFRt. Cells were plated post-sorting with a purity higher than 85% and counted every 2-4 days by Trypan Blue exclusion using Vi-CELL XR cell counter. Fifteen days post-activation both CD19.CAR and GD2.CAR T cells were collected, and qPCR was performed to verify downregulation of USP16 expression (FIG. 24) (fold change GD2.CAR (n=3): Control vs shUSP #1: 0.35, p<0.0001, and Control vs shUSP16 #2: 0.2452, p<0.0001, fold change CD19.CAR (n=4): Control vs shUSP #1: 0.2891, p<0.0001, and Control vs shUSP16 #2: 0.2566, p<0.0001). Proliferation was measured as fold increase compared to control cells at day 15 (FIG. 25).

NALM cells = assay: CAR-T in vitro cytotoxicity assay, CD19.CAR T cells; details: 1:5 E:T, 72 hours, n=3
Protocol: Primary T cells were activated as described (Example 3), transduced with a lentivirus encoding for either a CD19.CAR or a GD2.CAR co-expressing shUSP16 #1, shUSP16 #2 or a scrambled shRNA (Control). Cells were cultured in IL-2 and sorted between days 6-13 for EGFRt. At day 16 cytotoxicity assays were performed. Briefly, cells were counted and 100,000 T cells (adjusted for EGFR expression) were plated at 1:5 Effector:Target (E:T) ratio. At 72 hours, the mixture of tumor cells and T cells were collected, stained for CD3-PE, CD8-BV510, CD19- or GD2-APC, EGFR-AF488 and Sytox and counted by flow cytometry (MACSQuant, Miltenyi Biotec) (FIGS. 30A and 30B). Counting beads (CountBright Absolute Counting beads, Invitrogen) were added before acquisition and absolute number was calculated as following (number of cell events/number of bead events)×(assigned bead count of the lot (beads/50 ul)/volume of sample (ul))=concentration of sample as cells/ul). NALM cells were used as target cells for CD19.CAR T cells and CHLA-55 cells were used as target for GD2.CAR T cells. Three different primary T cell cultures were tested for CD19 and GD2 CAR.

Substance	Axin-2 expression, fold change vs Control (Axin-2)	Axin-2 expression vs Control (Axin-2; GD2.CAR)	CD69% (CD69; CD19.CAR)	CD69% (CD69; GD2.CAR)	reduction of exhaustion marker CD69 expression (shCtrl vs shRNA) (CD69)	T cell expansion, fold change vs Control ([1]; CD19.CAR, day 15, n=4)	T cell expansion, fold change vs Control ([1]; GD2.CAR, day 15, n=3)	T cell number (NALM cells)	residual tumor cells (NALM) (NALM cells)
shUSP16 #1: shRNA targeting USP16, 5′-GACTGTAAGACTGACAATAAA-3′ (SEQ ID NO: 8), pSIH backbone or co-expressed in CAR plasmid	1.998	3.269	13.70%	23.05%	41%	2.259	2.147	46674	29688
shUSP16 #2: shRNA targeting USP16, 5′-TATATCAGTTCACCCGTAAT-3′ (SEQ ID NO: 9), pSIH backbone or co-expressed in CAR plasmid	1.261	–	27.17%	27.8%	40%	3.036	3.036	58732	28462
